Data from patent US5688773A, “Method of selectively destroying neoplastic cells” (priority 1994, dated 1997).
Where “and” joins values, the source holds several entries; their conditions need not be identical. Identical values can stand only once.

Assays:
[1] = system: C6 glioma plus CRELacZ cells; test: Brain tumor model, fibroblast graft then intrathecal/intratumoral CPA; assay type: in vivo, athymic mice
Protocol: (§1) For intracerebral injections, mice were anesthetized with an intraperitoneal injection of Ketamin (100 mg per kg body weight) (Parke Davis, NJ) and Xylazine (20 mg per kg body weight) (Mobay Corp., KS). Surgical procedures were performed in a sterile fashion. After immobilizing the rodent in stereotactic apparatus (Kopf), a small incision was made in the skin overlying the skull. C6 glioma cells (10^3 cells in 2 μl) were stereotactically inoculated approximately 0.5 mm frontal and 0.5 mm right lateral to the bregma using a Hamilton syringe. The inoculation period was 5 minutes, with 2 minutes allowed for needle retraction. Three days later, the same burrhole was employed for the stereotactic grafting of 5×10^6 CRELacZ cells (cell line kindly provided by Dr. R. Mulligan, MIT) or 5×10^6 R450-2 cells in 25 μl of DMEM. Four, eight, and eleven days after this last injection, CPA (0.3 mg in 5 μl) was administered stereotactically, through the same skull opening, into the tumor and meningeal space of mice from both CRELacZ and R450-2 groups. Injections were carried out stereotactically over a period of ten minutes, with five minutes allowed for needle retraction. Animals were sacrificed, ten days after injection of the last dose of prodrug, by perfusing through the left ventricle approximately 3-5 mL of 100 mM sodium phosphate in 0.9% sodium chloride, pH 7.3, followed by 4% paraformaldehyde in 100 mM sodium phosphate, pH 7.3. Brains were carefully dissected from the skull and jaws of the animals, prior to placement overnight in 4% paraformaldehyde in 100 mM sodium phosphate, pH 7.3. For cryopreservation, brains were placed in 20% glycerol/10% dimethylsulfoxide in 100 mM sodium phosphate, pH 7.3, and then cut in 50 micron sections with a sledge microtome. Every sixth section was mounted onto gelatin-coated slides and stained with cresyl violet. To calculate brain tumor volumes, a computerized-image analyzer was used to scan tumor areas on each section. This analysis was performed in a blind fashion. Manual contouring was performed to distinguish tumor from normal brain cysts, or processing artifacts. Tumor volumes were obtained by multiplying the average tumor area from all sections in a brain by the distance (0.3 mm) between and including each section.

[2] = system: C6 glioma plus R450-2 cells; test: as above; assay type: in vivo, athymic mice
Protocol: as §1

[3] = system: R450-2 (ΨCRE-derived clone, cytochrome P450 2B1); test: Growth in the presence of 500 μM cyclophosphamide; conditions: 500 μM CPA, four days
[4] = CPA 0.3 mg on days 4, 8, 11 after graft, sacrifice ten days after last dose
[5] = individual animals, after cyclophosphamide administration

With `O=P1(N(CCCl)CCCl)NCCCO1` (stereo not drawn) [cyclophosphamide] the “animals with extensive and friable meningeal tumor” value [1, 4] was 8/8, the “Tumor necrosis of parenchymal tumors” value ([1]; histopathology of six brains) was “essentially no tumor necrosis” and the “Volumes of parenchymal brain tumors” value [1, 5] was 47.5 mm^3 and 51.5 mm^3 and 54.7 mm^3 and 62.4 mm^3 and 72.6 mm^3 and 85.1 mm^3. The “animals with a small residual meningeal mass” value ([2]; CPA 0.3 mg on days 4, 8, 11 after graft) was 1/8, the “animals with no evidence of meningeal tumor” value [2, 4] was 7/8 and the “brains with extensive tumor necrosis” value ([2]; histopathology of six brains) was 3/6. The “Volumes of parenchymal brain tumors” value [2, 5] was 3.2 mm^3 and 14.2 mm^3 and 28.4 mm^3 and 87.4 mm^3 and 105.3 mm^3 and 171.4 mm^3, the “brain tumor volume as fraction of average volume in lacZ-producer controls” value ([2]; three of six animals, listed as CPA) was “approximately 1/20 and 1/5 and 1/2” and the Cell destruction [3] was “destroyed completely”.
